The assay addresses T1, CPT-1 (Mus musculus, UniProt P97742).
T1 construct: endogenous in cells; host or cells: mouse bone marrow-derived macrophages (BMDMs)
T1 sequence (P97742 1-773): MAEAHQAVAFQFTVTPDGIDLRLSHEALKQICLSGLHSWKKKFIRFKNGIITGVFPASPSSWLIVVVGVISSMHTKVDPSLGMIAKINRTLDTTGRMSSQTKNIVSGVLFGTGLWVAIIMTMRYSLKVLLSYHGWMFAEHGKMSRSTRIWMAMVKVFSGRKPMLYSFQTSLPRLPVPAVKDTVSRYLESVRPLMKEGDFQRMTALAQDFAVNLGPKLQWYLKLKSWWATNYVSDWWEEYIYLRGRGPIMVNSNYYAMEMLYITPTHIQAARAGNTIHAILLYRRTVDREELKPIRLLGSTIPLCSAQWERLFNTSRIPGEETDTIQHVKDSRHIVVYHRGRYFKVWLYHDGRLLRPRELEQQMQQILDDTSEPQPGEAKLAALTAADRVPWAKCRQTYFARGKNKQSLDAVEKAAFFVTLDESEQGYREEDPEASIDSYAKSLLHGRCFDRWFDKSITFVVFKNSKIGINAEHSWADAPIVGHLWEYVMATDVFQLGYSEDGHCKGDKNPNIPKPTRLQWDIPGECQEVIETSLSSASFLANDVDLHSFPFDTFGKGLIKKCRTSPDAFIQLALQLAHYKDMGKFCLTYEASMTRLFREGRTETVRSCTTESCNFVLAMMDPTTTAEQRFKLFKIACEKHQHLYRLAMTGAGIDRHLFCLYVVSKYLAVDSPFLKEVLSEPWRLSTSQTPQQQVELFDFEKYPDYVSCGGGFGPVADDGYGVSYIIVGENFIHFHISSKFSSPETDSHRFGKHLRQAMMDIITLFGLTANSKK
As to the kind of experiment: Palmitoyl CoA-driven respiration in permeabilized BMDMs. It counts as cell-based.

On to `CCOC(=O)[C@@]1(CCCCCCOc2ccc(Cl)cc2)CO1` [etomoxir], for which, under “conditional CPT KO BMDMs”, the “sensitivity of respiration to 3 μM etomoxir” value is listed as “largely absent”. Besides, for the setting “permeabilized BMDMs”, the “EC50, FCCP-stimulated palmitoyl CoA-driven respiration” value is recorded as “nanomolar” and the “concentration of saturable effect” value was “less than 3 μM”.
